In general, melting point refers to the temperature, or range, at which the solid turns liquid.

Each structure is given as a SMILES string.

As to `Cc1ccc(Cl)c2ccc(Cl)nc12`, the melting point lay within 61 to 63 °C.
To `COC(=O)N1CCCNC(=O)C1` belongs 134 to 136 °C; to `CC(=O)CC(=O)c1ccc(F)cc1`, 48 to 52 °C; to `O=C1NCNC(=O)N1`, 290 to 292 °C.
Next, `COCCn1nc(C(=O)O)ccc1=O`: 156 to 158 °C; `Cc1nn(C(C)(C)C)c2nc(C3CC3)cc(C(=O)O)c12`: 172 to 174 °C.
Next, `COc1ccc(S(=O)(=O)N2CCCCCC2)cc1C(=O)O`: 114 to 116 °C; `C=CCn1c(N)c(C(=O)OCC)sc1=S`: 118 to 120 °C; `COC(=O)c1ccc(S(N)(=O)=O)cc1Cl`: 124 to 126 °C.
`O=C(O)Cn1ccc(=O)c([N+](=O)[O-])c1` gave a melting point of 249 to 251 °C.
To `CN(C)C(C)(C(=O)O)c1ccc(F)cc1` (stereo unspecified) belongs 234 to 236 °C.
In the case of `O=S(=O)(NC1CC1)C1CCN(Cc2ccccc2)C1` (stereo unspecified), the melting point lay in the range of 94 to 96 °C.
To `Cc1ccc(S(=O)(=O)Cl)c(C)c1C(=O)O` belongs 147 to 149 °C; to `O=C(O)c1cccc(NS(=O)(=O)c2cc(Cl)ccc2Cl)c1`, 217 to 219 °C; to `COc1cc(C=O)ccc1OCc1csc(C)n1`, 86 to 88 °C.
Next, `CCc1ccc(-c2csc(N)n2)cc1`: 120 to 122 °C; `Clc1noc(-c2ccoc2)n1`: 48 to 50 °C; `CN(C)C(=O)c1ccccc1C(=O)O`: 124 to 126 °C.
Next, `Cn1cc(C(=O)O)c(C(C)(C)C)n1`: 140 to 142 °C; `Cc1[nH]n(-c2ccc(C#N)cc2)c(=N)c1C`: 180 to 182 °C; `CCn1cnnc1Nc1ccccc1`: 125 to 127 °C.
Take `Cc1cc(OC(C)C(=O)O)ccc1Cl` (stereo unspecified): the melting point was 87 to 89 °C.
Next, `CCc1ccc(C(=O)CCl)cc1`: 41 to 43 °C; `Cc1ccc2nc(S)n(C)c(=O)c2c1`: 275 to 277 °C; `NCc1ccccc1CN1CCN(c2ccccc2)CC1`: 86 to 88 °C.
For `CNc1ccc2ccccc2n1`, the melting point was 69 to 71 °C.
The molecule `COC(=O)c1cccc(CS(=O)(=O)Cl)c1` registered a melting point of 102 to 104 °C.
To `Cc1nc(-c2ncccn2)sc1C(=O)O` belongs 224 to 226 °C; to `Nc1ccc(-c2nncn2-c2ccccc2)cn1`, 219 to 221 °C; to `Cc1ccc(Nc2ncccc2N)cc1`, 144 to 146 °C.
Molecule `Nc1ccc(NS(=O)(=O)c2c(Cl)cccc2Cl)cc1` yielded a melting point of 161 to 163 °C.
Molecule `COc1cc(C(C)=O)ccc1OCC(=O)O` had a melting point of 165 to 167 °C.
To `Cc1ccc(C(=O)O)n1C` belongs 149 to 151 °C.
Next, `O=C(O)c1cccc2[nH]cnc12`: 326 to 330 °C; `O=C(O)c1c[nH]c2c(Br)ccc(Br)c2c1=O`: 271 to 273 °C; `C#CCOc1ccccc1O`: 48 to 50 °C.
Next, `CCc1cccc2c(C(=O)CCl)c[nH]c12`: 165 to 167 °C; `C#CCNC(=O)CN1C(=O)C(=O)c2cc(Cl)ccc21`: 267 to 269 °C.
`NC(=O)C1CCCN(C(=O)c2cc(Cl)ccc2N)C1` (stereo unspecified) displayed a melting point of 229 to 231 °C.
To `Cc1cc(C)n(-c2ccc(C(F)(F)F)cc2N)n1` belongs 85 to 87 °C; to `N#Cc1cc(Cl)nc2ccc([N+](=O)[O-])cc12`, 173 to 175 °C.
Next, `CC1CC(N)=NN1Cc1ccccc1` (stereo unspecified): 159 to 161 °C; `Nc1ccc(S(=O)(=O)C(F)F)cc1`: 102 to 104 °C; `COc1ccc2c(-c3ccccc3)cc(NN)nc2c1`: 119 to 121 °C.
Next, `CC(C)n1nnnc1S`: 89 to 91 °C; `CC(C)COc1cccc(C(=O)O)c1`: 85 to 89 °C.
For the molecule `O=C(CC(=O)NCC1CCCO1)NCC1CCCO1` (stereo unspecified), the melting point lay within 77 to 79 °C.
Next, `Cc1cc(C)cc(C(=O)N2CCNCC2)c1`: 125 to 127 °C.
Next, `O=C(O)COc1ccc2oc3c(c2c1)CCCC3`: 188 to 190 °C.
To `Nc1ccc(-c2ncc3n2CCCC3)cc1` belongs 182 to 184 °C; to `COc1cc(C(=O)O)cc(N)c1OC`, 135 to 137 °C.
On to `Cc1nc(Cl)cc(-c2cccnc2)n1`, for which the melting point fell in the range of 67 to 69 °C.
Next, `O=C(O)Cc1ccc(-n2cccc2)cc1`: 171 to 173 °C; `CCCCOc1ccc(C(=O)NC(C(=O)O)C(C)O)cc1` (stereo unspecified): 130 to 132 °C.
For the molecule `O=C(O)C(c1ccccc1)C1CC1` (stereo unspecified), the melting point fell in the range of 84 to 86 °C.
Take `NS(=O)(=O)CCCC(=O)O`: the melting point lay within 108 to 111 °C.
To `O=C1CC2(CCCCC2)C(=O)N1` belongs 132 to 140 °C; to `CC(C)(C)OC(=O)N1CCC(OCC(=O)O)CC1`, 102 to 104 °C.
Next, `Oc1ccc(-c2nc3ccccc3[nH]2)cn1`: 238 to 242 °C; `c1ccc(CN2CCN(c3ccccc3)CC2)cc1`: 51 to 53 °C.
The molecule `COCC(=O)c1cccc([N+](=O)[O-])c1` came in with a melting point of 105 to 107 °C.
Next, `CC(C)(C)OC(=O)N1CCC(C(=O)O)(C(=O)O)C1`: 131 to 133 °C.
Next, `Nc1ccn(CC(F)(F)F)n1`: 39 to 41 °C; `O=Cc1cnn(Cc2ccccc2Cl)c1`: 54 to 56 °C.
Next, `CC(C)(C)c1nnc(N)o1`: 226 to 228 °C.
In turn, `O=C(O)c1ccc(N2CCCCC2)c(S(=O)(=O)N2CCCCC2)c1` showed a melting point of 196 to 198 °C.
To `O=C(O)CNC(=O)C12CC3CC(CC(C3)C1)C2` belongs 145 to 147 °C.
Next, `O=C(O)CNC(=O)c1cccc(OCc2ccccc2)c1`: 185 to 187 °C.
Molecule `COc1cc(C(=O)O)n(-c2ncccc2Cl)n1` showed a melting point of 242 to 244 °C.
As for `Ic1cnc2ccccn12`, the melting point is 166 to 168 °C.
`COCc1ccc(C(=O)O)cc1` came in with a melting point of 88 to 92 °C.
Next, `CC(=O)c1cc(Cl)cc(CN2CCN(C(C)=O)CC2)c1O`: 136 to 138 °C.
Regarding `CC1(O)CCNC1` (stereo unspecified), the melting point was in the range of 37 to 39 °C.
To `CC(C)(C)OC(=O)Nc1cc2c(cc1N)OCO2` belongs 93 to 95 °C; to `CC(C)(C)C(Br)C(N)=O` (stereo unspecified), 91 to 93 °C; to `Cc1cc(=O)[nH]c(-c2ccnc(Cl)c2)n1`, 269 to 271 °C.
Next, `O=S(=O)(Nc1nccs1)c1ccc(Cl)nc1`: 229 to 231 °C; `COc1cccc2c1OCCC2=O`: 80 to 82 °C.
To `CCc1ncc(N)cn1` belongs 125 to 127 °C.
Consider `CCCOc1ccc(C(N)=S)cc1`, for which the melting point is 142 to 144 °C.
To `CCN(CC)c1ccc(S(=O)(=O)N2CCOCC2)cc1N` belongs 99 to 101 °C.
Next, `Nc1noc(-c2ccc(Cl)cc2)n1`: 255 to 257 °C; `O=C(O)c1cc2c(c(S(=O)(=O)Cl)c1)CCC2`: 197 to 199 °C; `O=C(O)c1cc2c(F)cc(Br)cc2[nH]1`: 230 to 232 °C.
To `Nc1ccc(C(=O)N2CCCCCC2)cc1` belongs 133 to 135 °C; to `NC(Cc1ccccc1)C(=O)Nc1ccccc1` (stereo unspecified), 76 to 78 °C; to `NC(=S)Cc1nc2ccccc2s1`, 173 to 175 °C.
The molecule `O=S(=O)(c1ccc(O)cc1)N1CCCCC1` had a melting point of 130 to 132 °C.
For `CS(=O)(=O)Nc1ccc(N)c(Cl)c1`, the melting point is 129 to 131 °C.
To `O=C(O)c1cn(Cc2ccccc2)nc1-c1ccc(Cl)cc1` belongs 162 to 165 °C; to `Cc1cc(N)n(N)c(=O)c1`, 193 to 195 °C; to `Cn1c(O)c([N+](=O)[O-])c(=O)c2ccccc21`, 159 to 161 °C.
Next, `Fc1ccc2oc(Cl)nc2c1`: 33 to 35 °C; `N#Cc1ccccc1-c1ccc(CN2CCOCC2)cc1`: 71 to 73 °C.
Next, `CCCOc1cc2c(cc1C=O)OC(C)C2` (stereo unspecified): 45 to 47 °C.
In turn, `c1ccc(-c2nnc3n2CCNC3)cc1` yielded a melting point of 159 to 161 °C.
Next, `O=C(Cc1ccccn1)c1cccnc1`: 66 to 68 °C; `CN1C(=CC=O)C(C)(C)c2ccccc21`: 93 to 95 °C.
Take `O=C(O)CCCNC(=O)OCc1ccccc1`: the melting point lay within 60 to 64 °C.
To `OC1CCCCc2ccccc21` (stereo unspecified) belongs 101 to 103 °C.
Next, `Cc1nccn1-c1ccc(N)cn1`: 160 to 162 °C; `Cc1cc(C)c(C(=O)O)c(=O)[nH]1`: 234 to 236 °C; `O=C(O)c1ccc(NS(=O)(=O)c2cc(Cl)sc2Cl)cc1`: 189 to 191 °C.
Next, `C=CCOc1ccc(C(=O)c2ccccc2)c(O)c1`: 67 to 70 °C; `O=C(O)CC1COC(=O)C1` (stereo unspecified): 83 to 85 °C; `CSc1ccc2cc(CCl)c(Cl)nc2c1`: 151 to 153 °C.
As to `O=C(Nc1ccc(Br)cn1)C1CCCNC1` (stereo unspecified), the melting point fell in the range of 169 to 171 °C.
To `COC(C#N)c1ccc([N+](=O)[O-])cc1` (stereo unspecified) belongs 42 to 44 °C; to `O=C(O)C1(c2ccccc2F)CCCC1`, 106 to 108 °C.
Next, `O=C(Nc1ccc(F)cc1)NC1CCNC1` (stereo unspecified): 150 to 152 °C; `NC(=O)C=C1CCCC1`: 141 to 143 °C; `COc1ccccc1C1CC1C(=O)O` (stereo unspecified): 137 to 139 °C.
Consider `CN(C)C(=O)CN1C(=O)C(=O)c2cc(Br)ccc21`, for which the melting point lay in the range of 194 to 196 °C.
Next, `O=Cc1nc(-c2cc(Cl)ccc2Cl)cs1`: 112 to 114 °C.
Next, `Clc1noc(-c2ccsc2)n1`: 108 to 110 °C.
Next, `COc1ccc2c(=O)[nH]cnc2c1`: 251 to 253 °C; `O=C(CC(=O)Nc1ccccc1F)Nc1ccccc1F`: 158 to 160 °C.
In the case of `COc1ccccc1OCC(=O)NN`, the melting point was 101 to 103 °C.
To `C=Cc1nc(-c2ccc(Cl)cc2)no1` belongs 62 to 64 °C; to `O=[N+]([O-])c1cc(S(=O)(=O)N2CCOCC2)ccc1O`, 217 to 219 °C; to `Cc1c(C)n(Cc2ccco2)c2ncnc(N)c12`, 180 to 182 °C.

(Values after a melting point compilation (Tetko et al.).)
